From patent US20050222173A1, “Triazolopyrimidines” (priority 2002, published 2005)

Tested on: Podosphaera leucotricha
Test: Podosphaera test (apple)/protective
Format: in vivo
Conditions: Podosphaera leucotricha, 240 h, protective, application rate 100 g/ha, evaluation 10 days after inoculation, read-out: Efficacy in %
Procedure: Podosphaera Test (Apple)/Protective [table] […] To test for protective activity, young plants are sprayed with the preparation of active compound at the stated application rate. After the spray coating has dried on, the plants are inoculated with an aqueous spore suspension of the apple mildew pathogen Podosphaera leucotricha. The plants are then placed in a greenhouse at about 23° C. and a relative atmospheric humidity of about 70%.

C[C@@H](Nc1c(-c2ccccc2Cl)c(Cl)nc2nc(Cl)nn12)C(F)(F)F [drawing 32] and C[C@H](Nc1c(-c2c(F)cccc2Cl)c(Cl)nc2nc(Cl)nn12)C(F)(F)F [drawing 41] are the same in pest or weed control at 100 g/ha: 100% for the first, 100% for the second.

C[C@@H](Nc1c(-c2c(F)cc(F)cc2F)c(Cl)nc2nc(Cl)nn12)C(F)(F)F [drawing 33] and C[C@H](Nc1c(-c2c(F)cc(F)cc2F)c(Cl)nc2nc(Br)nn12)C(F)(F)F [drawing 38] are the same in pest or weed control at 100 g/ha: 100% for the first, 100% for the second.

Compared with CC(C)Nc1c(-c2ccccc2Cl)c(Cl)nc2nc(Br)nn12 [drawing 34], Clc1nc2nc(Cl)c(-c3ccccc3Cl)c(NCC3CC3)n2n1 [drawing 37] is higher in pest or weed control at 100 g/ha: 87% for the first, 97% for the second.

Compared with CCC(C)CNc1c(-c2c(F)cc(F)cc2F)c(Cl)nc2nc(Cl)nn12 (centres unmarked) [drawing 35], CCC(C)CNc1c(-c2c(F)cc(F)cc2F)c(Cl)nc2nc(Br)nn12 (centres unmarked) [drawing 36] is lower in pest or weed control at 100 g/ha: 100% for the first, 94% for the second.

CC(C)CNc1c(-c2ccc(F)cc2F)c(Cl)nc2nc(Cl)nn12 [drawing 40] and CC(C)CNc1c(-c2c(F)cccc2Cl)c(Cl)nc2nc(Cl)nn12 [drawing 45] are the same in pest or weed control at 100 g/ha: 100% for the first, 100% for the second.

First: Fc1ccc(-c2c(Cl)nc3nc(Cl)nn3c2N[C@@H](Cl)C(F)(F)F)c(F)c1 [drawing 42]
Second: COc1nc2nc(Cl)c(-c3c(F)cc(F)cc3OC)c(NC(C)C(F)(F)F)n2n1 (centres unmarked) [drawing 49]
The pest or weed control at 100 g/ha of the first is higher: 100% for the first, 83% for the second.

First: Fc1cccc(Cl)c1-c1c(Cl)nc2nc(Cl)nn2c1N1CCCC1 [drawing 43]
Second: Fc1cccc(Cl)c1-c1c(Cl)nc2nc(Cl)nn2c1NCC1CC1 [drawing 46]
The pest or weed control at 100 g/ha of the first is lower: 93% for the first, 100% for the second.

Compared with C=CCN(CC)c1c(-c2c(F)cccc2Cl)c(Cl)nc2nc(Cl)nn12 [drawing 44], COCCN(C)c1c(-c2c(F)cccc2Cl)c(Cl)nc2nc(Cl)nn12 [drawing 47] is higher in pest or weed control at 100 g/ha: 95% for the first, 100% for the second.

Same assay, conditions: Podosphaera leucotricha, 240 h, protective, application rate 199 g/ha, evaluation 10 days after inoculation, read-out: Efficacy in %

For CC1CCCN(c2c(-c3c(F)cc(F)cc3F)c(Cl)nc3nc(Cl)nn23)C1 (centres unmarked) [drawing 39], the pest or weed control at 199 g/ha was 94%.

Same assay, conditions: protective, application rate 100 g/ha, evaluation 10 days after inoculation

Work on C=C(C)CN(C)c1c(-c2c(F)cccc2Cl)c(Cl)nc2nc(Cl)nn12 [drawing 48] yielded an Efficacy in % of 100%.

Tested on: Venturia inaequalis
Test: Venturia test (apple)/protective
Format: in vivo
Conditions: Venturia inaequalis, 240 h, protective, application rate 100 g/ha, evaluation 10 days after inoculation, read-out: Efficacy in %
Procedure: Venturia Test (Apple)/Protective [table] To produce a suitable preparation of active compound, 1 part by weight of active compound is mixed with the stated amounts of solvent and emulsifier, and the concentrate is diluted with water to the desired concentration. To test for protective activity, young plants are sprayed with the preparation of active compound at the stated application rate. […] The plants are then placed in a greenhouse at about 21° C. and a relative atmospheric humidity of about […].

Going from C[C@@H](Nc1c(-c2ccccc2Cl)c(Cl)nc2nc(Cl)nn12)C(F)(F)F [drawing 50] to CC(C)Nc1c(-c2ccccc2Cl)c(Cl)nc2nc(Br)nn12 [drawing 52], the pest or weed control at 100 g/ha falls from 100% to 98%.

First: C[C@@H](Nc1c(-c2c(F)cc(F)cc2F)c(Cl)nc2nc(Cl)nn12)C(F)(F)F [drawing 51]
Second: CCC(C)CNc1c(-c2c(F)cc(F)cc2F)c(Cl)nc2nc(Cl)nn12 (centres unmarked) [drawing 53]
The pest or weed control at 100 g/ha of the first is higher: 100% for the first, 83% for the second.

Compared with CCC(C)CNc1c(-c2c(F)cc(F)cc2F)c(Cl)nc2nc(Br)nn12 (centres unmarked) [drawing 54], Clc1nc2nc(Cl)c(-c3ccccc3Cl)c(NCC3CC3)n2n1 [drawing 55] is higher in pest or weed control at 100 g/ha: 80% for the first, 96% for the second.

Tested on: not listed separately
Test: logP determination by HPLC (EEC Directive 79/831 Annex V. A8)
Conditions: not given

Compound Nc1nnc(Br)[nH]1 [Example 185, 5-bromo-1,2,4-triazole-3-amine] has a chromatographic logP of 0.37.

Same assay, conditions: HPLC, gradient method, acetonitrile/0.1% aqueous phosphoric acid

Compared with Fc1cccc(Cl)c1-c1c(Cl)nc2nc(Cl)nn2c1NCC1CC1 [Example 143], CC(C)C(C)Nc1c(-c2c(F)cccc2Cl)c(Cl)nc2nc(Cl)nn12 (centres unmarked) [Example 172] is higher in log.P: 3.49 for the first, 4.09 for the second.

Going from COCCN(C)c1c(-c2c(F)cccc2Cl)c(Cl)nc2nc(Cl)nn12 [Example 148] to CC(C)C(C)Nc1c(-c2ccccc2Cl)c(Cl)nc2nc(Cl)nn12 (centres unmarked) [Example 175], the log.P rises from 3.32 to 4.16.

Compared with CC(C)C(C)Nc1c(-c2ccccc2Cl)c(Cl)nc2nc(Br)nn12 (centres unmarked) [Example 170], CC(C)C(C)Nc1c(-c2ccc(F)cc2F)c(Cl)nc2nc(Cl)nn12 (centres unmarked) [Example 173] is lower in log.P: 4.18 for the first, 3.96 for the second.

With CC(C)C(C)Nc1c(-c2c(F)cc(F)cc2F)c(Cl)nc2nc(Cl)nn12 (centres unmarked) [Example 171] the log.P was 4.01.
